Reference: PubChem BioAssay (NCI)
Several values for one entry are separate records, joined by “and”; a condition that tells them apart may be missing. Equal values may be shown once.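 Assay format: 96-well plates, 48-hour exposure. GI50 marks 50% less growth. TGI denotes the concentration required for complete inhibition of growth.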

How the values were obtained:
Test in all cases: inhibition of tumour cell growth, NCI panel, 48 h
ACHN renal = system: ACHN renal
RXF 393 renal = system: RXF 393 renal
SR leukemia = system: SR leukemia
T-47D breast = system: T-47D breast
MDA-N = system: MDA-N
HT29 colon = system: HT29 colon
SF-539 CNS = system: SF-539 CNS
OVCAR-3 ovarian = system: OVCAR-3 ovarian
K-562 leukemia = system: K-562 leukemia
SK-MEL-2 melanoma = system: SK-MEL-2 melanoma

Row | Compound | TGI (ACHN renal) | TGI (RXF 393 renal) | TGI (SR leukemia) | TGI (T-47D breast) | TGI (MDA-N) | TGI (HT29 colon) | TGI (SF-539 CNS) | TGI (OVCAR-3 ovarian) | TGI (K-562 leukemia) | TGI (SK-MEL-2 melanoma) | GI50 (RXF 393 renal) | GI50 (SF-539 CNS) | GI50 (OVCAR-3 ovarian) | GI50 (SK-MEL-2 melanoma)
1 | Cc1cc(=O)n2nc(SCc3ccccc3)sc2n1 | 56.2 µM | > 100 µM | > 100 µM | > 100 µM | > 100 µM | > 100 µM | > 100 µM | > 100 µM | > 100 µM |  |  |  |  | 
2 | CN(C)/N=C/c1cn(C)c(=O)n(C)c1=O | > 100 µM | > 100 µM |  | > 100 µM | > 100 µM | > 100 µM | > 100 µM | > 100 µM | > 100 µM | > 100 µM |  |  |  | 
3 | c1ccc(CCN2CCc3[nH]c4ccccc4c3C2)cc1 | 96.7 µM | 34.3 µM | 75.7 µM | 51.5 µM |  | 28.5 µM | 40 µM |  | 45.5 µM |  |  |  |  | 
4 | COc1cc2c(cc1OCCCC(=O)Nc1cc(C(=O)Nc3cc(C(=O)Nc4cc(C(=O)NCCCN(C)C)n(C)n4)n(C)n3)n(C)n1)N=CC1CCCN1C2=O (stereo not given) | 38.4 µM | 43.2 µM |  | > 100 µM |  | 51.3 µM | > 100 µM | > 100 µM | > 100 µM | 48 µM |  |  |  | 
5 | O=C(CCN1CCCC1)Nc1ccc2sc3ccccc3c(=O)c2n1 | 16.3 µM |  | 23.7 µM | > 31.6 µM | 20.1 µM | 6.37 µM | 18.1 µM | 20.5 µM | 21.3 µM | 18 µM |  |  |  | 
6 | CN(C)CCNC(=O)c1ccc(NCCCN(C)CCCNc2ccc3c(=O)n(CCN(C)C)c(=O)n4c5ccccc5c(=O)c2c34)c2c(=O)c3ccccc3[nH]c12 | 0.653 µM | 0.271 µM |  | 1.89 µM | 0.199 µM | 0.161 µM | 2.46 µM | 0.23 µM | 1.06 µM | 0.228 µM |  |  |  | 
7 | Nc1nc(-c2ccccc2N=NN2CCCC2)nc2ccccc12 | 11.7 µM | 20.4 µM | 2.38 µM | 19.4 µM |  | 10.8 µM | 5 µM | 4.35 µM | 10.2 µM | 28.8 µM |  |  |  | 
8 | Cc1ccccc1-n1c(C)nc2c1C(=O)c1ccccc1C2=O | > 100 µM | > 100 µM | > 100 µM |  |  | > 100 µM | > 100 µM | 61.8 µM | > 100 µM | > 100 µM |  |  |  | 
9 | CC[N+]1(C)CCC(O)(/C=C/c2ccc(OC)cc2)C(C(=O)/C=C/c2ccc(OC)cc2)C1 (stereo not given) | 23.2 µM | 28.4 µM |  | 24.6 µM | > 50.1 µM | > 74.5 µM | > 45.7 µM | 53 µM | 4.5 µM | 39.7 µM |  |  |  | 
10 | [Cl][Pt+2][Cl].[NH-]C1CCCCC1[NH-] (stereo not given) |  | > 100 µM |  |  |  | > 100 µM and 31 µM | > 100 µM | > 59.4 µM and > 47.2 µM and 20.8 µM | > 100 µM and 17.8 µM | > 74.1 µM and > 100 µM and 29.5 µM | > 57.9 µM and 66.8 µM and > 28.6 µM | 21.6 µM and 6.79 µM and 6.99 µM | 9.42 µM and 6.62 µM and 2.98 µM | 28.8 µM and 12.8 µM and 3.93 µM
11 | N=C1N(S(=O)(=O)c2ccccc2)[C@@H](Cc2ccccc2)[C@H](c2ccccc2)C1(c1ccccc1)c1ccccc1 | > 100 µM | > 100 µM | > 100 µM |  | > 100 µM | > 100 µM | > 100 µM | > 100 µM | > 100 µM | > 100 µM |  |  |  | 
12 | CCNc1ccc2c(c1)Cc1ccccc1-2 | > 100 µM | > 100 µM | > 100 µM | > 100 µM |  | > 100 µM | > 100 µM | > 100 µM | > 100 µM | > 100 µM |  |  |  | 
